# Test results taken from patent US20130203146A1, “MICROFABRICATED SCAFFOLD STRUCTURES” (priority 2010, published 2013).
# Tested on: HUVECs
# Assay: Cytotoxicity of [Rull(bpy)3]^2+ on HUVECs (MTT assay)
# Assay type: cell-based, human
# Procedure: FIG. 3 is a graph illustrative of the effect of [Rull(bpy)3]^2+ concentration on the viability of HUVECs. Absorbance of the MTT assay was determined at 490 nm.
# HUVECs (CRL-2873™) thawed from cryopreservation was cultured in Endogro Supplement medium kit (Millipore) supplemented with 1% penicillin streptomycin. Cells were recovered from tissue culture dishes/T25 flask with 0.05% trypsin-ethylenediaminetetraacetic acid (EDTA) in PBS. The cells were routinely passaged at 1/5 confluency. All cells were incubated at 37° C. in a humidified, 5% CO2 atmosphere.
compound,measurement,setting,value
"[Cl-].[Cl-].[Ru+2].c1ccc(-c2ccccn2)nc1.c1ccc(-c2ccccn2)nc1.c1ccc(-c2ccccn2)nc1 [[Rull(bpy)3]^2+, ruthenium II trisbipyridyl chloride [RuII(bpy)3]^2+]",safe range of [Rull(bpy)3]^2+ concentrations,"HUVECs, MTT assay, absorbance at 490 nm",0.5 to 3.5 mM
same,viability of HUVECs,"higher [Rull(bpy)3]^2+ concentration than the safe range, lower absorbance at 490 nm",reduce the viability of HUVECs
